The results in this text go back to ChEMBL document CHEMBL4680251, “Discovery of a 2-pyridinyl urea-containing compound YD57 as a potent inhibitor of apoptosis signal-regulating kinase 1 (ASK1)” (Eur J Med Chem, 2020).

Test [1] is described as follows: Inhibition of human full length recombinant CDK9/cyclin T1 using KTFCGTPEYLAPE as substrate incubated for 40 mins in presence of [gamma-33ATP] by radiometric scintillation counting analysis.
The subject of test [2] is HepG2. Kind of test: Induction of cell cycle arrest in human HepG2 cells assessed as accumulation at G0/G1 phase at 16 uM incubated for 24 hrs by propidium iodide staining based flow cytometry (reference value: 38.34%). The test is classed as functional.
Test [3] deals with HepG2. Kind of test: Induction of cell cycle arrest in human HepG2 cells assessed as accumulation at G0/G1 phase at 0.5 to 8 uM incubated for 24 hrs by propidium iodide staining based flow cytometry. It counts as functional. The note with it: dose 0.5-8 µM. (A flow cytometer gives signals particle by particle.)
The target in test [4] is T1, Mitogen-activated protein kinase kinase kinase 6 (Homo sapiens, UniProt O95382).
T1 sequence (O95382 whole entry): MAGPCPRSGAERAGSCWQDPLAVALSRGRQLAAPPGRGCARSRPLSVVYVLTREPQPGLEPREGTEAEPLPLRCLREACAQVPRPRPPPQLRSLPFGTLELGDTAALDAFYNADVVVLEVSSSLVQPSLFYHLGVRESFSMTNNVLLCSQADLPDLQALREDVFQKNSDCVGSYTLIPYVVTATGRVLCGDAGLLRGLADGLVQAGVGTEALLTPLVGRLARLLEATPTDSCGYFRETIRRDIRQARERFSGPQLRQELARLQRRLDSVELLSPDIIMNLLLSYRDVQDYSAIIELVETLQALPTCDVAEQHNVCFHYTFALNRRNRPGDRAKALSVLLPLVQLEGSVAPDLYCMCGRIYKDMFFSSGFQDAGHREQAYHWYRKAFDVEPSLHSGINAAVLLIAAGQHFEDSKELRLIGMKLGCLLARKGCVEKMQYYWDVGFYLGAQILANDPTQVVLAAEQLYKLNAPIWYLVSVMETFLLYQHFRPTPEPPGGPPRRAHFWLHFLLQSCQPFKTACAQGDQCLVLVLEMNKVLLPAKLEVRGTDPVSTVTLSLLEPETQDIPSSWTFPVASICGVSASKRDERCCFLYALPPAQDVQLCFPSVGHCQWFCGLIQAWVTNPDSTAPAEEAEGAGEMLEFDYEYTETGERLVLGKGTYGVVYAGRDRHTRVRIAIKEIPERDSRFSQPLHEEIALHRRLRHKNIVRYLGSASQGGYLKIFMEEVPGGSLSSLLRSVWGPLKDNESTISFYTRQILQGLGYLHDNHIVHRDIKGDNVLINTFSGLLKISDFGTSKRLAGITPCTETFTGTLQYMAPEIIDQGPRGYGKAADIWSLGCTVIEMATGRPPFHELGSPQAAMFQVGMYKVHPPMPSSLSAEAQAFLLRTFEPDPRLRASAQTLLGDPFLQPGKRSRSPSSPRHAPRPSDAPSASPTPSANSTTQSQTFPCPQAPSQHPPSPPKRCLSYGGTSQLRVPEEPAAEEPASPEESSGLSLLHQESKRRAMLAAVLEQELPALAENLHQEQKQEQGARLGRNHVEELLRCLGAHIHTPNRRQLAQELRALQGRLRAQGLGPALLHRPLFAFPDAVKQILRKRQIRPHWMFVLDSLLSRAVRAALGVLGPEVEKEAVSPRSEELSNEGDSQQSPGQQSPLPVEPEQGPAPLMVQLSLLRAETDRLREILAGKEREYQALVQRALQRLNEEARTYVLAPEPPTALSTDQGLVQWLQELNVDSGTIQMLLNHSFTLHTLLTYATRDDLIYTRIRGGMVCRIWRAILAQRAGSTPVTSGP
Nature of the test: Inhibition of ASK2 (unknown origin).

For test [5], the target named is T2, Mitogen-activated protein kinase kinase kinase 7 (Homo sapiens, UniProt O43318).
T2 sequence (O43318 whole entry): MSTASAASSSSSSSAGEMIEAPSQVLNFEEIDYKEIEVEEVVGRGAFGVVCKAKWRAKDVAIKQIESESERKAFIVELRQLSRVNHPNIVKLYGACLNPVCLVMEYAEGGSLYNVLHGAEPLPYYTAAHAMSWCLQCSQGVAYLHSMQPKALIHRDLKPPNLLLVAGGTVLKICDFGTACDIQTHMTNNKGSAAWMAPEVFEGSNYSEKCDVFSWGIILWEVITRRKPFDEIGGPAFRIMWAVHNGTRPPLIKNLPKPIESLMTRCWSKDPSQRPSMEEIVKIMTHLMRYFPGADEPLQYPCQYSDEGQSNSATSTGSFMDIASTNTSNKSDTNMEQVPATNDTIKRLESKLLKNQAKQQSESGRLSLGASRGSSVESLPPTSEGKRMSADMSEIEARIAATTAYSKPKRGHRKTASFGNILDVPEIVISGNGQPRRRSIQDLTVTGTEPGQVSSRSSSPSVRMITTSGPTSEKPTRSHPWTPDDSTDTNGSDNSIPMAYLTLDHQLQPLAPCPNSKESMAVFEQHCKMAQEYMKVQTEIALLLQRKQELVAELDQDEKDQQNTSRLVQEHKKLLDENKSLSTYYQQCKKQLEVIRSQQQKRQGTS
Kind of test: Inhibition of TAK1 (unknown origin).

For test [6], the target named is T3, Mitogen-activated protein kinase kinase kinase 5 (Homo sapiens, UniProt Q99683).
T3 sequence (Q99683 whole entry): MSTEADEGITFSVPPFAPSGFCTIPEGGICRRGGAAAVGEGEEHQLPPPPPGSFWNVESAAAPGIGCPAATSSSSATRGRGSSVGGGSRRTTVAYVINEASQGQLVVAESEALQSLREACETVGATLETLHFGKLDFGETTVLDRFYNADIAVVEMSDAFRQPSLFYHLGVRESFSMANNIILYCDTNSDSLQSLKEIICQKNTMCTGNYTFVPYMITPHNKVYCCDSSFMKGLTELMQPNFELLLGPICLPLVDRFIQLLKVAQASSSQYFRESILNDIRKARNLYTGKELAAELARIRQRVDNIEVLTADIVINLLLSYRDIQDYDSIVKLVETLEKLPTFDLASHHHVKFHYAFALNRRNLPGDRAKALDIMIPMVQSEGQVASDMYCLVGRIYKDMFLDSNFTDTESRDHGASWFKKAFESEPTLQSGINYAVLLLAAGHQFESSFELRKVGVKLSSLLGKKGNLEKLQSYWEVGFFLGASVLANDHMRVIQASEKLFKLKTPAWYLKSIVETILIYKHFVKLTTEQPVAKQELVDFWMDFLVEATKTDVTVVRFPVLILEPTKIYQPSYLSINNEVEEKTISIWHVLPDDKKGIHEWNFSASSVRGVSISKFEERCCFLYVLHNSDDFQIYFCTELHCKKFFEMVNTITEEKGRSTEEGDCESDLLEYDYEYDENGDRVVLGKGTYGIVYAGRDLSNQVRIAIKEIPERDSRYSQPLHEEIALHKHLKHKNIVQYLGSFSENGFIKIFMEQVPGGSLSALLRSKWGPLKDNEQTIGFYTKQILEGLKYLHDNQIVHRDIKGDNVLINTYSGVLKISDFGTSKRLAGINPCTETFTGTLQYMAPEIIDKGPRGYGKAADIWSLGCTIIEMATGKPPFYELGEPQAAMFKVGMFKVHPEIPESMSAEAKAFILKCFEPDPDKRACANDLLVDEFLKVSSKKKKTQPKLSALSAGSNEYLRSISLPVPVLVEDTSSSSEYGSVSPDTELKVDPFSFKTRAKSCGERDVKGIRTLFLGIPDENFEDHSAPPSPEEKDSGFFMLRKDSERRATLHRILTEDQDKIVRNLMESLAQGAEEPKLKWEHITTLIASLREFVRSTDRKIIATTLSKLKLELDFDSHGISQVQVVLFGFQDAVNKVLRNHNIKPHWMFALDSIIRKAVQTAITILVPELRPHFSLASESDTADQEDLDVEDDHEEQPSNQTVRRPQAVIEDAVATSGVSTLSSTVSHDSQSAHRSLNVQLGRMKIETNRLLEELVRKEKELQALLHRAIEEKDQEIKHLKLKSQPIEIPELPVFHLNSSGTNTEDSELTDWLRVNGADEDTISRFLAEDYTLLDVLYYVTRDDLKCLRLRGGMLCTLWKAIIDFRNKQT
Nature of the test: Inhibition of ASK1 (unknown origin).

Active and inactive are the calls of the source. The rule behind the calls is not given here.

As a reminder, the IC50 is the concentration that gives 50% inhibition.

For `CN[C@@H]1C[C@H]2O[C@@](C)([C@@H]1OC)n1c3ccccc3c3c4c(c5c6ccccc6n2c5c31)C(=O)NC4` [STAUROSPORINE], the concentration for half-maximal inhibition (IC50) in test [1] was 0.0601 µM.

On to `Cc1cc(F)c(C(=O)Nc2cccc(-c3nncn3C(C)C)n2)cc1-n1cnc(C2CC2)c1`, for which, in test [2], the outcome was Active. For the same molecule, the outcome in test [3] was inactive.

As for `CC(C)n1cnnc1-c1cccc(NC(=O)Nc2ccc3ccccc3n2)n1`, the concentration for half-maximal inhibition (IC50) in test [4] was 2.34 µM; in test [5], 4.56 µM; in test [6], 0.0691 µM.
